Source: patent US20260125368A1, “SALT OF GLP-1R AGONIST, PREPARATION METHOD THEREFOR AND USE THEREOF” (MINDRANK AI LTD., priority 2022, published 2026)

Assay: Hygroscopic behavior test by dynamic vapor sorption (DVS)
Assay type: physicochemical
Details: 25° C.; for Did the crystal form change before and after the test?: 0-90% RH; for Hygroscopicity / 80% RH sample weight change (%): 80% RH; for 80% RH sample weight change (%): adsorption 0-90% RH
Excerpt: The experimental method for characterizing an acid salt or a base salt of compound I by dynamic vapor sorption (DVS) was as follows: A small amount of a powder of the acid salt or the base salt of compound I was taken and placed into a precise sample tray that matches the instrument. After the sample was loaded, the sample tray was sent into the instrument for analysis. In the present disclosure, the instrument model used in the dynamic vapor sorption analysis was Intrinsic PLUS; the experimental parameter was set as follows: a constant temperature of 25° C. was set; the mass percent change rate per unit time (dm/dt)=0.02%/min was used as a criterion for determining that a balance is achieved; the program humidity change cycle was set as follows: the initial relative humidity was 0%, and the endpoint relative humidity was 90%.
The hygroscopic behavior of a compound affects the production, storage, stability, and quality of the drug.

Did the crystal form change before and after the test? | Hygroscopicity | 80% RH sample weight change (%) | SMILES
no solid form change was observed and No | slightly hygroscopic | 0.90% | O=C(O)c1ccc2nc(CN3CCC(Oc4cccc(COc5ccc(Cl)cc5F)n4)CC3)n(C[C@@H]3CCO3)c2c1 [Free form of compound I-1, (S)-2-((4-((6-((4-chloro-2-fluorophenoxy)methyl)pyridin-2-yl)oxy)piperidin-1-yl)methyl)-1-(oxetan-2-ylmethyl)-1H-benzo[d]imidazole-6-carboxylic acid]
no solid form change was observed and No | slightly hygroscopic | 0.71% | N#Cc1ccc(OCc2cccc(OC3CCN(Cc4nc5ccc(C(=O)O)cc5n4C[C@@H]4CCO4)CC3)n2)c(F)c1 [Free form of compound I-2, (S)-2-((4-((6-((4-cyano-2-fluorophenoxy)methyl)pyridin-2-yl)oxy)piperidin-1-yl)methyl)-1-(oxetan-2-ylmethyl)-1H-benzo[d]imidazole-6-carboxylic acid]
